From patent US9371280B2, “Substituted pyrrolidine-2-carboxamides” (Hoffmann-La Roche Inc., priority 2012, dated 2016)
Structures can show the parent of a compound that is named as a salt. Where two headings read alike, the source gives them in different places.

Molecular target: interaction between p53 and MDM2 proteins (recombinant GST-tagged MDM2) (Homo sapiens, UniProt Q00987)
Test: HTRF assay of inhibition of the p53-MDM2 interaction (GST-MDM2 / biotinylated p53 peptide);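 also: FRET read-out from Eu-labelled anti-GST antibody to streptavidin-APC, with 90 nM N-terminally biotinylated p53 peptide and 160 ng/ml GST-MDM2 in Tris-borate saline containing 1 mM DTT, 384-well format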
Type: binding
Details: HTRF, 0.02% BSA, 37° C. 1 h
Description: The ability of the compounds to inhibit the interaction between p53 and MDM2 proteins was measured by an HTRF (homogeneous time-resolved fluorescence) assay in which recombinant GST-tagged MDM2 binds to a peptide that resembles the MDM2-interacting region of p53 (Lane et al.). Binding of GST-MDM2 protein and p53-peptide (biotinylated on its N-terminal end) is registered by the FRET (fluorescence resonance energy transfer) between Europium (Eu)-labeled anti-GST antibody and streptavidin-conjugated Allophycocyanin (APC).
Test is performed in black flat-bottom 384-well plates (Costar) in a total volume of 40 uL containing: 90 nM biotinylate peptide, 160 ng/ml GST-MDM2, 20 nM streptavidin-APC (PerkinElmerWallac), 2 nM Eu-labeled anti-GST-antibody (PerkinElmerWallac), 0.02% bovine serum albumin (BSA), 1 mM dithiothreitol (DTT) and 20 mM Tris-borate saline (TBS) buffer as follows: Add 10 uL of GST-MDM2 (640 ng/ml working solution) in reaction buffer to each well. […] Incubate at 37° C. for 1 h.

interaction between p53 and MDM2 proteins (recombinant GST-tagged MDM2), sequence (Q00987 whole entry): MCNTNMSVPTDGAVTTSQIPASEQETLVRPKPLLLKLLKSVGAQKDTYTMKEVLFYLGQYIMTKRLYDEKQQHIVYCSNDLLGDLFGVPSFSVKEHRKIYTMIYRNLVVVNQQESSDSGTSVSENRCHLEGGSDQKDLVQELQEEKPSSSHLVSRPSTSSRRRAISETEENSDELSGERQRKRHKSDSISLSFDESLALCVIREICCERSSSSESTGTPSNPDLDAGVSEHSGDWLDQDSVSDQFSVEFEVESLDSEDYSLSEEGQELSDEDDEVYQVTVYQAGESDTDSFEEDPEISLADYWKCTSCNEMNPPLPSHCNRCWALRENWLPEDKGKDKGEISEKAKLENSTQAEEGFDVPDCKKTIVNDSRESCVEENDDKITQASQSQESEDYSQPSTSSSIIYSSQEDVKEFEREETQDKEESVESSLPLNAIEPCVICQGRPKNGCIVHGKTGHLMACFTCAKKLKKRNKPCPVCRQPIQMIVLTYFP

## COc1cc(C(=O)OCCC(=O)OC(C)(C)C)ccc1NC(=O)[C@@H]1N[C@@H](CC(C)(C)C)[C@](C#N)(c2ccc(Cl)cc2F)[C@H]1c1cccc(Cl)c1F [Example 37, 4-{[(2R,3S,4R,5S)-4-(4-Chloro-2-fluoro-phenyl)-3-(3-chloro-2-fluoro-phenyl)-4-cyano-5-(2,2-dimethyl-propyl)-pyrrolidine-2-carbonyl]-amino}-3-methoxy-benzoic acid 2-tert-butoxycarbonyl-ethyl ester]
  IC50: 0.016 µM

## COc1cc(C(=O)NN)ccc1NC(=O)[C@@H]1N[C@@H](CC(C)(C)C)[C@](C#N)(c2ccc(Cl)cc2F)[C@H]1c1cccc(Cl)c1F [Example 39, (2R,3S,4R,5S)-4-(4-Chloro-2-fluoro-phenyl)-3-(3-chloro-2-fluoro-phenyl)-4-cyano-5-(2,2-dimethyl-propyl)-pyrrolidine-2-carboxylic acid (4-hydrazinocarbonyl-2-methoxy-phenyl)-amide]
  IC50: 0.0365 µM

## COc1cc(C(=O)OCCOC(=O)[C@H](C)N)ccc1NC(=O)[C@@H]1N[C@@H](CC(C)(C)C)[C@](C#N)(c2ccc(Cl)cc2F)[C@H]1c1cccc(Cl)c1F [Example 4, 4-{[(2R,3S,4R,5S)-3-(3-Chloro-2-fluoro-phenyl)-4-(4-chloro-2-fluoro-phenyl)-4-cyano-5-(2,2-dimethyl-propyl)-pyrrolidine-2-carbonyl]-amino}-3-methoxy-benzoic acid 2-((S)-2-amino-propionyloxy)-ethyl ester]
  IC50: 0.00984 µM

## COc1cc(C(=O)OCC(=O)N2CCN(C)CC2)ccc1NC(=O)[C@@H]1N[C@@H](CC(C)(C)C)[C@](C#N)(c2ccc(Cl)cc2F)[C@H]1c1cccc(Cl)c1F [Example 64, 4-{[(2R,3S,4R,5S)-4-(4-Chloro-2-fluoro-phenyl)-3-(3-chloro-2-fluoro-phenyl)-4-cyano-5-(2,2-dimethyl-propyl)-pyrrolidine-2-carbonyl]-amino}-3-methoxy-benzoic acid 2-(4-methyl-piperazin-1-yl)-2-oxo-ethyl ester, hydrochloride]
  IC50: 0.0116 µM

## COc1cc(C(=O)OC(C)CN2CCOCC2)ccc1NC(=O)[C@@H]1N[C@@H](CC(C)(C)C)[C@](C#N)(c2ccc(Cl)cc2F)[C@H]1c1cccc(Cl)c1F (stereo partly drawn) [Example 21, 4-{[(2R,3S,4R,5S)-4-(4-Chloro-2-fluoro-phenyl)-3-(3-chloro-2-fluoro-phenyl)-4-cyano-5-(2,2-dimethyl-propyl)-pyrrolidine-2-carbonyl]-amino}-3-methoxy-benzoic acid 1-methyl-2-morpholin-4-yl-ethyl ester]
  IC50: 0.0137 µM

## COCCOCCOCCOCCOC(=O)c1ccc(NC(=O)[C@@H]2N[C@@H](CC(C)(C)C)[C@](C#N)(c3ccc(Cl)cc3F)[C@H]2c2cccc(Cl)c2F)c(OC)c1 [Example 49, 4-{[(2R,3S,4R,5S)-4-(4-Chloro-2-fluoro-phenyl)-3-(3-chloro-2-fluoro-phenyl)-4-cyano-5-(2,2-dimethyl-propyl)-pyrrolidine-2-carbonyl]-amino}-3-methoxy-benzoic acid 2-{2-[2-(2-methoxy-ethoxy)-ethoxy]-ethoxy}-ethyl ester, hydrochloride]
  IC50: 0.0139 µM

## COCCOCCOCCOCCOCCOC(=O)c1ccc(NC(=O)[C@@H]2N[C@@H](CC(C)(C)C)[C@](C#N)(c3ccc(Cl)cc3F)[C@H]2c2cccc(Cl)c2F)c(OC)c1 [Example 51, 4-{[(2R,3S,4R,5S)-4-(4-Chloro-2-fluoro-phenyl)-3-(3-chloro-2-fluoro-phenyl)-4-cyano-5-(2,2-dimethyl-propyl)-pyrrolidine-2-carbonyl]-amino}-3-methoxy-benzoic acid 2-(2-{2-[2-(2-methoxy-ethoxy)-ethoxy]-ethoxy}-ethoxy)-ethyl ester, hydrochloride]
  IC50: 0.01 µM

## COc1cc(C(=O)OCCOCCOCCO)ccc1NC(=O)[C@@H]1N[C@@H](CC(C)(C)C)[C@](C#N)(c2ccc(Cl)cc2F)[C@H]1c1cccc(Cl)c1F [Example 47, 4-{[(2R,3S,4R,5S)-4-(4-Chloro-2-fluoro-phenyl)-3-(3-chloro-2-fluoro-phenyl)-4-cyano-5-(2,2-dimethyl-propyl)-pyrrolidine-2-carbonyl]-amino}-3-methoxy-benzoic acid 2-[2-(2-hydroxy-ethoxy)-ethoxy]-ethyl ester, hydrochloride]
  IC50: 0.00834 µM

## COc1cc(C(=O)OCCOP(=O)(O)O)ccc1NC(=O)[C@@H]1N[C@@H](CC(C)(C)C)[C@](C#N)(c2ccc(Cl)cc2F)[C@H]1c1cccc(Cl)c1F [Example 13, 2-(Phosphonooxy)ethyl 4-((2R,3S,4R,5S)-3-(3-chloro-2-fluorophenyl)-4-(4-chloro-2-fluorophenyl)-4-cyano-5-neopentylpyrrolidine-2-carboxamido)-3-methoxybenzoate, trifluoroacetate salt]
  IC50: 0.00454 µM

## COC(=O)CC[C@@H](NC(=O)c1ccc(NC(=O)[C@@H]2N[C@@H](CC(C)(C)C)[C@](C#N)(c3ccc(Cl)cc3F)[C@H]2c2cccc(Cl)c2F)c(OC)c1)C(=O)OC [Example 53, (R)-2-(4-{[(2R,3S,4R,5S)-4-(4-Chloro-2-fluoro-phenyl)-3-(3-chloro-2-fluoro-phenyl)-4-cyano-5-(2,2-dimethyl-propyl)-pyrrolidine-2-carbonyl]-amino}-3-methoxy-benzoylamino)-pentanedioic acid dimethyl ester, hydrochloride]
  IC50: 0.0127 µM

## COc1cc(C(=O)On2nnc3cccnc32)ccc1NC(=O)[C@@H]1N[C@@H](CC(C)(C)C)[C@](C#N)(c2ccc(Cl)cc2F)[C@H]1c1cccc(Cl)c1F [Example 20, 4-{[(2R,3S,4R,5S)-4-(4-Chloro-2-fluoro-phenyl)-3-(3-chloro-2-fluoro-phenyl)-4-cyano-5-(2,2-dimethyl-propyl)-pyrrolidine-2-carbonyl]-amino}-3-methoxy-benzoic acid [1,2,3]triazolo[4,5-b]pyridin-3-yl ester]
  IC50: 0.00654 µM

## COCCOCCOCCOCCOC(=O)COC(=O)c1ccc(NC(=O)[C@@H]2N[C@@H](CC(C)(C)C)[C@](C#N)(c3ccc(Cl)cc3F)[C@H]2c2cccc(Cl)c2F)c(OC)c1 [Example 73, 4-{[(2R,3S,4R,5S)-4-(4-Chloro-2-fluoro-phenyl)-3-(3-chloro-2-fluoro-phenyl)-4-cyano-5-(2,2-dimethyl-propyl)-pyrrolidine-2-carbonyl]-amino}-3-methoxy-benzoic acid 2-{2-[2-(2-methoxy-ethoxy)-ethoxy]-ethoxy}-ethoxycarbonylmethyl ester]
  IC50: 0.0196 µM

## COCCOCCOCCOC(=O)c1ccc(NC(=O)[C@@H]2N[C@@H](CC(C)(C)C)[C@](C#N)(c3ccc(Cl)cc3F)[C@H]2c2cccc(Cl)c2F)c(OC)c1 [Example 48, 4-{[(2R,3S,4R,5S)-4-(4-Chloro-2-fluoro-phenyl)-3-(3-chloro-2-fluoro-phenyl)-4-cyano-5-(2,2-dimethyl-propyl)-pyrrolidine-2-carbonyl]-amino}-3-methoxy-benzoic acid 2-[2-(2-methoxy-ethoxy)-ethoxy]-ethyl ester, hydrochloride]
  IC50: 0.0135 µM

## COc1cc(C(=O)OC[C@H](O)[C@@H](O)[C@H](O)[C@H](O)CO)ccc1NC(=O)[C@@H]1N[C@@H](CC(C)(C)C)[C@](C#N)(c2ccc(Cl)cc2F)[C@H]1c1cccc(Cl)c1F [Example 28, 4-{[(2R,3S,4R,5S)-4-(4-Chloro-2-fluoro-phenyl)-3-(3-chloro-2-fluoro-phenyl)-4-cyano-5-(2,2-dimethyl-propyl)-pyrrolidine-2-carbonyl]-amino}-3-methoxy-benzoic acid (2S,3R,4R,5R)-2,3,4,5,6-pentahydroxy-hexyl ester]
  IC50: 0.00602 µM

## COc1cc(C(=O)OCCN2CCN(CCO)CC2)ccc1NC(=O)[C@@H]1N[C@@H](CC(C)(C)C)[C@](C#N)(c2ccc(Cl)cc2F)[C@H]1c1cccc(Cl)c1F [Example 61, 4-{[(2R,3S,4R,5S)-4-(4-Chloro-2-fluoro-phenyl)-3-(3-chloro-2-fluoro-phenyl)-4-cyano-5-(2,2-dimethyl-propyl)-pyrrolidine-2-carbonyl]-amino}-3-methoxy-benzoic acid 2-[4-(2-hydroxy-ethyl)-piperazin-1-yl]-ethyl ester]
  IC50: 0.0114 µM

## COc1cc(C(=O)OCC(=O)NCCOCCOCCOCCO)ccc1NC(=O)[C@@H]1N[C@@H](CC(C)(C)C)[C@](C#N)(c2ccc(Cl)cc2F)[C@H]1c1cccc(Cl)c1F [Example 75, 4-{[(2R,3S,4R,5S)-4-(4-Chloro-2-fluoro-phenyl)-3-(3-chloro-2-fluoro-phenyl)-4-cyano-5-(2,2-dimethyl-propyl)-pyrrolidine-2-carbonyl]-amino}-3-methoxy-benzoic acid (2-{2-[2-(2-hydroxy-ethoxy)-ethoxy]-ethoxy}-ethylcarbamoyl)-methyl ester]
  IC50: 0.0092 µM

## COc1cc(C(=O)OCCN2CCOCC2)ccc1NC(=O)[C@@H]1N[C@@H](CC(C)(C)C)[C@](C#N)(c2ccc(Cl)cc2F)[C@H]1c1cccc(Cl)c1F [Example 22, 4-{[(2R,3S,4R,5S)-4-(4-Chloro-2-fluoro-phenyl)-3-(3-chloro-2-fluoro-phenyl)-4-cyano-5-(2,2-dimethyl-propyl)-pyrrolidine-2-carbonyl]-amino}-3-methoxy-benzoic acid 2-morpholin-4-yl-ethyl ester]
  IC50: 0.015 µM

## COc1cc(C(=O)OCC(=O)N[C@@H](CCC(=O)OCc2ccccc2)C(=O)OCc2ccccc2)ccc1NC(=O)[C@@H]1N[C@@H](CC(C)(C)C)[C@](C#N)(c2ccc(Cl)cc2F)[C@H]1c1cccc(Cl)c1F [Example 70, (S)-2-[2-(4-{[(2R,3S,4R,5S)-4-(4-Chloro-2-fluoro-phenyl)-3-(3-chloro-2-fluoro-phenyl)-4-cyano-5-(2,2-dimethyl-propyl)-pyrrolidine-2-carbonyl]-amino}-3-methoxy-benzoyloxy)-acetylamino]-pentanedioic acid dibenzyl ester]
  IC50: 0.0564 µM

## 4-{[(2R,3S,4R,5S)-4-(4-Chloro-2-fluoro-phenyl)-3-(3-chloro-2-fluoro-phenyl)-4-cyano-5-(2,2-dimethyl-propyl)-pyrrolidine-2-carbonyl]-amino}-3-methoxy-benzoic acid, polyethylene glycol-200 ester, trifluoroacetate salt [Example 45]
read-out: IC50 (uM, 0.02% BSA)
  IC50: 0.0105 µM
